Measurements as given in US12265087B2, “Olfactory receptor as microglia marker and use thereof” (DAEGU GYEONGBUK INSTITUTE OF SCIENCE AND TECHNOLOGY, priority 2019, dated 2025).

Key:
[1] = target: T1, Olfr110 F104W mutation (Mus musculus, UniProt A2RT31, F104W); assay: Luciferase assay with site-directed Olfr110 mutants; type: cell-based; conditions: 2-PF treatment
T1 construct: Full-length odorant receptor genes from mouse and human genomic DNAs were amplified using appropriate primers; Lucy (N); Flag (N); Rho (N); expressed in transfected cells; host or cells: Hana3A cells
T1 sequence (A2RT31 1-317 F104W): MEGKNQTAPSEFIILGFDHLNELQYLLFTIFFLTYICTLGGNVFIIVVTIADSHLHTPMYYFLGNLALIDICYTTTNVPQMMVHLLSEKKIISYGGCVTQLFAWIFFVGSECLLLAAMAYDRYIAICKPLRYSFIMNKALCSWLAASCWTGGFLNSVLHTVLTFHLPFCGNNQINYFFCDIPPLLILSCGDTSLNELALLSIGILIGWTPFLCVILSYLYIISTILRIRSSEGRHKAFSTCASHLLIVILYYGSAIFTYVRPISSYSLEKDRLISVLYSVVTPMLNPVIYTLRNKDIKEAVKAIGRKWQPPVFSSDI
Description: Specific mutant vectors of the Olfr110 structure were generated using PfuUltra High-Fidelity DNA polymerase (#600380; Agilent Technologies). All mutant vectors (F102W; F104W; Y252F; Y259F; F102W/F104W; Y252F/Y259F; F102W/Y252F/Y259F; F104W/Y252F/Y259F; F102W/F104W/Y252F/Y259F) were sequenced in forward and reverse directions (Macrogen).

[2] = test system: microglia; assay: Fura-2/AM calcium imaging of microglia; type: cell-based, mouse; conditions: 2-PF 100, 300, 1000 μM
Experimental: Twenty-four hours after newly isolated microglia were mounted on poly-D-lysine-coated 18-mm aperture microscope cover glasses (#0111580; Marienfeld), the microglia were incubated in a superfusion chamber for 30 minutes. The chamber contained 4 μM of Fura-2/AM (Ca^2+-sensitive fluorescent dye; #F1221; Thermo Fisher Scientific) in Ringer's solution (115 mM NaCl, 2.5 mM KCl, 1 mM CaCl2, 1.5 mM MgCl2, 4.5 mM HEPES, pH 7.4) filtered through a filter with a 0.22-μm pore. After calcium staining culture, the chamber was placed under an inverted microscope and washed with Ringer's solution for 20 minutes prior to […] treatment. Here, a flow rate of the solution is 12 ml/min. Subsequently, primary microglia were treated with 300 μM ATP (#A2383; Sigma Aldrich) for 5 seconds. After washing for 5 minutes, the primary microglia were treated with a 100 μM 2-PF solution for 5 seconds. This step was accomplished with two different concentrations (300 and 1000 μM) of 2-PF solution. Finally, the microglia were treated with a 300 μM ATP solution for 5 seconds. An emitted fluorescent material was photographed every 2 seconds using a CCD camera. Pseudo-color images were converted using fractional fluorescence changes (ΔF/F, Δ[Ca^2+]i). In addition, these images show changes in intracellular calcium ions. […]

[3] = test system: primary microglia; assay: Phagocytosis of FITC-dextran by primary microglia (FACS); type: cell-based, mouse; conditions: 100, 300 and 500 μM
Experimental: Primary microglia were seeded in 24-well plates (5×10^5 cells/well) and incubated for 24 hours. Cells were preincubated with 2-PF or Sup for 30 minutes, incubated with FITC-dextran (1 mg/ml, 20 mg/ml in PBS; #FD70S; Sigma Aldrich) in serum-free DMEM at 37° C. for […], and washed with PBS at 4° C. The cells were detached with 0.25% trypsin (#15090-046; Thermo Fisher Scientific) in PBS, and the detached cells were analyzed with FACS Accuri™ C6 (BD Biosciences). Mean fluorescence intensity (MFI) was calculated by integrating fluorescence histograms under each condition using the software. A phagocytosis index was defined as MFI, normalized against an untreated group.

[4] = Disease behavior: mouse mobility after IP injection; type: in vivo; conditions: 2-PF injection (IP), three concentrations
Experimental: It is known that an increase in disease behavior by microglial activation is due to an increase in secreted cytokines. To confirm the increase in disease behavior with the increase in cytokines, this experiment was conducted. The evaluation of disease behavior was accomplished after IP injection of Sup or 2-PF into the mice.
After IP injection, a mouse was placed in a space with four open sides (40×40×40 cm, white field, black wall), and the location of the mouse was recorded with a camera for 30 minutes, and then a moving distance thereof was calculated. Afterward, the data was plotted in a pseudo-color heat map using EthoVision XT (Noldus, Netherlands).

[5] = test system: primary microglia; assay: Western blotting of phosphorylated signaling proteins in primary microglia; type: cell-based, mouse; conditions: 0-30 min after treatment
Experimental: Cells and tissue were prepared using the T-PER® reagent (#78510; Thermo Fisher Scientific) containing protease inhibitors (#04-693-116-001; Roche Molecular Diagnostics) and DMSF (Sigma-Aldrich), and then lysed using a MagNA lyser (Roche Molecular Diagnostics). A total protein extract was quantified by the Bradford assay. The samples were dissolved in 7.5% SDS-PAGE or 4-20% gradient mini-PROTEIN TGX Precast Gels (#456-1064; Bio-Rad Laboratories), and then blotted on nitrocellulose membranes (#10600002; GE Healthcare). Afterward, the membranes were blocked for 1 hour in 5% non-fat dry milk and TBST, 0.1% TWEEN® 20 (#P9416; Sigma-Aldrich), and Tris-buffered saline, and then incubated with primary antibodies at 4° C. overnight. The antibodies were as follows: Olfr110 (36 kDa; 1:1,000; #ab177327; Abcam), anti-rhodopsin (39 kDa; 1:1,000; #MABN15; Millipore), CREB (43 kDa; 1:1,000; #9197; Cell Signaling Technology), phospho-CREB (43 kDa; 1:1,000; #9198; Cell Signaling Technology), ERK (44 kDa; 1:1,000; #sc094; Santa Cruz), phospho-ERK (42, 44 kDa; 1:1,000; #sc-7383; Santa Cruz), phospho-Akt (60 kDa; 1:500; sc-293125; Santa Cruz), phospho-JNK (46, 54 kDa; 1:500; sc-6254; Santa Cruz), phosphor-p38 (38 kDa; 1:1,000; sc-7973; Santa Cruz), and beta-Actin (45 kDa; 1:10,000; #4967; Cell Signaling Technology). In addition, as isotype-matched horseradish peroxidase-conjugated secondary antibodies, anti-rabbit IgG (#711-035-152; Jackson ImmunoResearch) diluted 1:100,000, and anti-mouse IgG (#715-035-150; Jackson ImmunoResearch) diluted 1:40,000 in TBST were used at room temperature for 2 hours. Immunoreactive protein bands were obtained using SuperSignal™ West Pico Chemiluminescent Substrate (#34080; Thermo Fisher Scientific).

CCCCCc1ccco1 [2-PF, 2-pentylfuran]
luciferase activity of Olfr110 F104W mutant [1]: completely lost | intracellular calcium ion levels [2]: increased according to an injection amount | phagocytosis [3]: significantly increased in a concentration-dependent manner | mouse mobility [4]: concentration-dependent decrease | phosphorylation levels of ERK, p38, JNK and Akt [5]: increased from 2 minutes and stopped increasing at 20 minutes
